Where a name gives a salt, the structure may show the parent alone.
Target: T1, human CCR5 (Homo sapiens, UniProt P51681)
T1 construct: expressed in transfected cells
Experiment: Inhibition test on the binding of RANTES to CCR5 (RANTES-induced transient increase of Ca ion) in CCR5/CHO cells
Format: cell-based
Protocol: The whole procedures were carried out by preparing gene high expressing cells under basic genetic engineering methods by utilizing conventional methods. Also, as to the methods for the measurement in the present invention, improvement of measurement accuracy and/or modification of measurement sensitivity were adopted in order to evaluate the compound of the present invention. Detailed methods for the experiment are illustrated below.
(1) Isolation of Human CCR5 Genes
Human placental cDNA was prepared using Marathon cDNA amplification kit (Clontech). […]
Thus established human CCR5 stable over-expressing CHO cells (CCR5/CHO cells) were suspended in Ham's F-12 medium containing FBS (10%) and dispensed in […] portions into a 96 well plate. […] Transient increase in the intracellular Ca^2+ concentration induced by the human RANTES was measured using a Ca^2+ detector for 96 well use (Hamamatsu Photonics), and inhibition ration (%) of the test compound was calculated by the following calculation formula. Inhibition ratio=(Ec−Ea)/Ec×100 • Ec: measured value of Ca^2+ transient increase by RANTES • Ea: measured value of Ca^2+ transient increase by RANTES when a test compound was added

T1 sequence (P51681 whole entry): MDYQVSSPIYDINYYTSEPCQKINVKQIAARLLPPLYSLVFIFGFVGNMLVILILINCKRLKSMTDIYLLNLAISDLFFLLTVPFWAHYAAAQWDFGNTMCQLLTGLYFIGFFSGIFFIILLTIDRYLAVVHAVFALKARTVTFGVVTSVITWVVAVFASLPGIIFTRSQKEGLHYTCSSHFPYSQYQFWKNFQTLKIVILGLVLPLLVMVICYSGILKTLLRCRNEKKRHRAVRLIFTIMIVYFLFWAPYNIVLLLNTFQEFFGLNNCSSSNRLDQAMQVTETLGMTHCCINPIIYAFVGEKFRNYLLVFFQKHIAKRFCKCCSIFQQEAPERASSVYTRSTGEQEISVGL

IC50: 4.16 µM
SMILES: COc1ccc(CN2CCC(c3ccc(CNC(=O)c4ccc(Cl)cc4)cc3)CC2)cc1OC [Example 1, 4-chloro-N-{4-[1-(3,4-dimethoxybenzyl)piperidin-4-yl]benzyl}benzamide hydrochloride]

Source: patent US20070043079A1, “Heterocyclic compound containing nitrogen atom and use thereof” (priority 2003, published 2007)
